Laboratory results published in PubChem BioAssay AID1745844 (Carcinogenic Potency Database (CPDB), 2022).
Several values for one entry are separate records, joined by “and”; a condition that tells them apart may be missing. Equal values may be shown once.

Tested on: rodent lifetime carcinogenesis bioassay, tumor incidence TD50
Test: carcinogenic potency in animals, long-term in vivo studies, CPDB compilation (AID 1745844)

Structure (SMILES): S=P(N1CC1)(N1CC1)N1CC1
- TD50 (mouse, strain B6C3F1, females, i.p., site: all sites, lesion: lymphocytic leukemia + lymphoma, dosed 47 weeks, study length 86 weeks): 0.216 mg/kg/day and 0.21 mg/kg/day
- TD50 (mouse, strain B6C3F1, females, i.p., site: any site (literature study), lesion: several types, types named in the paper, dosed 47 weeks, study length 86 weeks): 0.0855 mg/kg/day
- TD50 (mouse, strain B6C3F1, females, i.p., site: liver, lesion: hepatocellular adenoma + hepatocellular carcinoma + neoplastic nodule, dosed 47 weeks, study length 86 weeks): 1.12 mg/kg/day
- TD50 (mouse, strain B6C3F1, females, i.p., site: lung, lesion: alveolar/bronchiolar adenoma + alveolar/bronchiolar carcinoma, dosed 47 weeks, study length 86 weeks): 0.408 mg/kg/day
- TD50 (mouse, strain B6C3F1, females, i.p., site: lung, lesion: alveolar/bronchiolar adenoma, dosed 47 weeks, study length 86 weeks): 0.408 mg/kg/day
- TD50 (mouse, strain B6C3F1, males, i.p., site: all sites, lesion: leukemia + lymphocytic leukemia + lymphoma, dosed 52 weeks, study length 83 weeks): 0.241 mg/kg/day
- TD50 (mouse, strain B6C3F1, males, i.p., site: all sites, lesion: leukemia + lymphoma, dosed 52 weeks, study length 83 weeks): 0.241 mg/kg/day and 0.238 mg/kg/day
- TD50 (mouse, strain B6C3F1, males, i.p., site: all sites, lesion: lymphocytic leukemia + lymphoma, dosed 52 weeks, study length 83 weeks): 0.265 mg/kg/day and 0.262 mg/kg/day
- TD50 (mouse, strain B6C3F1, males, i.p., site: all sites, lesion: squamous-cell carcinoma, dosed 52 weeks, study length 83 weeks): 0.102 mg/kg/day
- TD50 (mouse, strain B6C3F1, males, i.p., site: any site (literature study), lesion: several types, types named in the paper, dosed 52 weeks, study length 83 weeks): 0.069 mg/kg/day
- TD50 (mouse, strain B6C3F1, males, i.p., site: liver, lesion: hepatocellular adenoma + hepatocellular carcinoma + neoplastic nodule, dosed 52 weeks, study length 83 weeks): 1.12 mg/kg/day
- TD50 (mouse, strain B6C3F1, males, i.p., site: lung, lesion: alveolar/bronchiolar adenoma + alveolar/bronchiolar carcinoma, dosed 52 weeks, study length 83 weeks): 0.584 mg/kg/day
- TD50 (mouse, strain B6C3F1, males, i.p., site: preputial gland, lesion: squamous-cell carcinoma, dosed 52 weeks, study length 83 weeks): 0.3 mg/kg/day
- TD50 (mouse, strain B6C3F1, males, i.p., site: skin, lesion: squamous-cell carcinoma, dosed 52 weeks, study length 83 weeks): 0.28 mg/kg/day
- TD50 (rat, strain BR 46, males, i.v., site: any site (literature study), lesion: benign tumor, dosed 52 weeks, study length 104 weeks): 0.646 mg/kg/day
- TD50 (rat, strain BR 46, males, i.v., site: any site (literature study), lesion: malignant tumor, dosed 52 weeks, study length 104 weeks): 0.303 mg/kg/day
- TD50 (rat, strain BR 46, males, i.v., site: any site (literature study), lesion: several types, types named in the paper, dosed 52 weeks, study length 104 weeks): 0.186 mg/kg/day
- TD50 (rat, strain Sprague-Dawley, females, i.p., site: any site (literature study), lesion: several types, types named in the paper, dosed 36 weeks, study length 81 weeks): 0.0404 mg/kg/day
- TD50 (rat, strain Sprague-Dawley, females, i.p., site: brain + nasal cavity, lesion: olfactory neuroblastoma + carcinoma, NOS, dosed 36 weeks, study length 81 weeks): 0.819 mg/kg/day
- TD50 (rat, strain Sprague-Dawley, females, i.p., site: ear canal + skin, lesion: squamous-cell carcinoma, dosed 36 weeks, study length 79 weeks): 0.214 mg/kg/day
- TD50 (rat, strain Sprague-Dawley, females, i.p., site: ear canal + skin, lesion: squamous-cell carcinoma, dosed 36 weeks, study length 81 weeks): 0.217 mg/kg/day
- TD50 (rat, strain Sprague-Dawley, females, i.p., site: ear canal, lesion: squamous-cell carcinoma, dosed 36 weeks, study length 79 weeks): 0.327 mg/kg/day
- TD50 (rat, strain Sprague-Dawley, females, i.p., site: mammary gland, lesion: adenocarcinoma, NOS, dosed 36 weeks, study length 79 weeks): 0.182 mg/kg/day
- TD50 (rat, strain Sprague-Dawley, females, i.p., site: uterus, lesion: adenocarcinoma, NOS, dosed 36 weeks, study length 79 weeks): 0.236 mg/kg/day
- TD50 (rat, strain Sprague-Dawley, females, i.p., site: uterus, lesion: adenocarcinoma, NOS, dosed 36 weeks, study length 81 weeks): 0.243 mg/kg/day
- TD50 (rat, strain Sprague-Dawley, males, i.p., site: all sites, lesion: leukemia + lymphoma, dosed 32 weeks, study length 79 weeks): 0.224 mg/kg/day
- TD50 (rat, strain Sprague-Dawley, males, i.p., site: all sites, lesion: leukemia, dosed 32 weeks, study length 79 weeks): 0.29 mg/kg/day
- TD50 (rat, strain Sprague-Dawley, males, i.p., site: all sites, lesion: leukemia, dosed 32 weeks, study length 82 weeks): 0.312 mg/kg/day
- TD50 (rat, strain Sprague-Dawley, males, i.p., site: all sites, lesion: lymphocytic leukemia, dosed 32 weeks, study length 79 weeks): 0.374 mg/kg/day
- TD50 (rat, strain Sprague-Dawley, males, i.p., site: any site (literature study), lesion: several types, types named in the paper, dosed 32 weeks, study length 82 weeks): 0.0332 mg/kg/day
- TD50 (rat, strain Sprague-Dawley, males, i.p., site: brain + nasal cavity, lesion: neuroblastoma + olfactory neuroblastoma + carcinoma, NOS, dosed 32 weeks, study length 82 weeks): 0.285 mg/kg/day
- TD50 (rat, strain Sprague-Dawley, males, i.p., site: ear canal + skin, lesion: squamous-cell carcinoma, dosed 32 weeks, study length 79 weeks): 0.122 mg/kg/day
- TD50 (rat, strain Sprague-Dawley, males, i.p., site: skin, lesion: squamous-cell carcinoma, dosed 32 weeks, study length 79 weeks): 0.155 mg/kg/day
- TD50 (rat, strain Sprague-Dawley, males, i.p., site: subcutaneous tissue, lesion: sarcoma, NOS, dosed 32 weeks, study length 79 weeks): 0.22 mg/kg/day
